Test results reported in patent US8163935B2, “Fused heterocyclic compounds” (Takeda Pharmaceutical Company Limited, priority 2005, dated 2012).

| melting point [°C] | SMILES |
| --- | --- |
| 168 to 169 | CCC(CC)c1ccc(Cl)c2nc(Oc3c(C)cc(Cl)cc3C)n(C)c12 [Example 125, 4-Chloro-2-(4-chloro-2,6-dimethylphenoxy)-7-(1-ethylpropyl)-1-methyl-1H-benzimidazole] |
| 161 to 162 | CCC(CC)c1ccc(Cl)c2nc(Oc3c(OC)cc(C)cc3OC)n(C)c12 [Example 126, 4-Chloro-2-(2,6-dimethoxy-4-methylphenoxy)-7-(1-ethylpropyl)-1-methyl-1H-benzimidazole] |
| 87 to 88 | CCCC(CCC)c1ccc(Cl)c2nc(Oc3ccc(Cl)cc3Cl)n(C)c12 [Example 127, 4-Chloro-2-(2,4-dichlorophenoxy)-1-methyl-7-(1-propylbutyl)-1H-benzimidazole] |
| 97 to 99 | CCCC(CCC)c1ccc(Cl)c2nc(Oc3ccc(Br)cc3Cl)n(C)c12 [Example 128, 2-(4-Bromo-2-chlorophenoxy)-4-chloro-1-methyl-7-(1-propylbutyl)-1H-benzimidazole] |
| 148 to 150 | CCCC(CCC)c1ccc(Cl)c2nc(Oc3c(C)cc(Cl)cc3Cl)n(C)c12 [Example 129, 4-Chloro-2-(2,4-dichloro-6-methylphenoxy)-1-methyl-7-(1-propylbutyl)-1H-benzimidazole] |
| 160 to 162 | CCCC(CCC)c1ccc(Cl)c2nc(Oc3c(C)cc(Cl)cc3C)n(C)c12 [Example 130, 4-Chloro-2-(4-chloro-2,6-dimethylphenoxy)-1-methyl-7-(1-propylbutyl)-1H-benzimidazole] |
| 155 to 157 | CCCC(CCC)c1ccc(Cl)c2nc(Oc3c(C)cc(Br)cc3C)n(C)c12 [Example 131, 2-(4-Bromo-2,6-dimethylphenoxy)-4-chloro-1-methyl-7-(1-propylbutyl)-1H-benzimidazole] |
| 148 to 150 | CCCC(CCC)c1ccc(Cl)c2nc(Oc3c(Cl)cc(Cl)cc3Cl)n(C)c12 [Example 132, 4-Chloro-1-methyl-7-(1-propylbutyl)-2-(2,4,6-trichlorophenoxy)-1H-benzimidazole] |
| 203 to 205 | CCCC(CCC)c1ccc(Cl)c2nc(Oc3c(OC)cc(C)cc3OC)n(C)c12 [Example 133, 4-Chloro-2-(2,6-dimethoxy-4-methylphenoxy)-1-methyl-7-(1-propylbutyl)-1H-benzimidazole] |
| 150 to 152 | CCCC(CCC)c1ccc(Cl)c2nc(Oc3ccc4c5c3CCN5C(=O)CC4)n(C)c12 [Example 134, 9-{[4-Chloro-1-methyl-7-(1-propylbutyl)-1H-benzimidazol-2-yl]oxy}-1,2,5,6-tetrahydro-4H-pyrrolo[3,2,1-ij]quinolin-4-one] |
| 114 to 115 | CCC(CC)c1ccc(Cl)c2nc(Oc3ccc(Cl)cc3Br)n(C)c12 [Example 135, 2-(2-Bromo-4-chlorophenoxy)-4-chloro-7-(1-ethylpropyl)-1-methyl-1H-benzimidazole] |
| 214 to 216 | CCC(CC)c1cc(Br)cc2nc(Oc3c(C)cc(Cl)cc3C)n(C)c12 [Example 136, 5-Bromo-2-(4-chloro-2,6-dimethylphenoxy)-7-(1-ethylpropyl)-1-methyl-1H-benzimidazole] |
| 197 to 198 | CCC(CC)c1ccc(Cl)c2nc(Oc3c(C)cc(Br)cc3C)n(C)c12 [Example 137, 2-(4-Bromo-2,6-dimethylphenoxy)-4-chloro-7-(1-ethylpropyl)-1-methyl-1H-benzimidazole] |
| 155 to 157 | CCC(CC)c1ccc(Cl)c2nc(Oc3c(Cl)cc(Cl)cc3Cl)n(C)c12 [Example 138, 4-Chloro-7-(1-ethylpropyl)-1-methyl-2-(2,4,6-trichlorophenoxy)-1H-benzimidazole] |
| 183 to 184 | CCC(CC)c1ccc(Cl)c2nc(Oc3c(OC)cc(C)nc3C)n(C)c12 [Example 139, 4-Chloro-7-(1-ethylpropyl)-2-[(4-methoxy-2,6-dimethylpyridin-3-yl)oxy]-1-methyl-1H-benzimidazole] |
